# In patent US20230026277A1, “COMPOSITION FOR PREVENTION, ALLEVIATION, OR TREATMENT OF RESPIRATORY DISEASE” (MICROX CO., LTD., priority 2019, published 2023):
# Assays:
# Assay type in all cases: in vivo
# asthma-induced mice [1] = test: Lung tissue staining, degree of inflammation (grades 0 to 3), asthma-induced mice; conditions: for inflammation score (lung tissue, grades 0 to 3): asthma-induced mice, 48 hours after secondary challenge, OVA group score 3, FIG. 6
# Protocol: (§1) Eight-week-old female […] mice (Orient Bio Korea Inc., Korea) having no certain pathogen were accommodated in an aseptic laminar-flow cabinet, and bred by supplying a standard solid feed ad libitum. When the following experiment was performed, the mice were made to correspond to 7- to 8-weeks old, and all laboratory animals were managed according to the protocol approved by the Institutional Animal Care and Use Committee of the Chonbuk National University Medical School.
# (§2) Also, on days 21 and 28 from the experimental starting date, the mice were put into a plastic box (Plexiglas (Rohm & Haas, Philadelphia, Pa.) exposure chamber; 24.5 cm×40.5 cm×15.0 cm), and 1.5% ovalbumin was evaporated using an ultrasonic nebulizer (NE-U12; output 0.8 mL/min; Omron, Japan), and injected into the box for 30 minutes so that the mice inhaled the evaporated ovalbumin (secondary challenge).
# A tissue was extracted from each of the mice manufactured in Experimental Method 1, and put into a 10% formalin solution, and reacted for 24 hours to prepare a paraffin block. Thereafter, the paraffin block was microtomed into slices with a size of 3 μm, and each of the slices was attached onto a slide, and heamatoxylin-eosin IHE staining was performed. Then, the slices were observed using a microscope. Here, the degree of inflammation was determined by indicating degrees of inflammation around the airway and blood vessels as grades 0 to 3.
# 0: There are no inflammatory cells;
# 1: Inflammatory cells are occasionally observed around the airway and blood vessels;
# 2: Most of the airway and blood vessels are surrounded by approximately 1 to 5 thin bands of inflammatory cells; and
# 3: Most of the airway and blood vessels are surrounded by thick bands of inflammatory cells (5 or more).
# Preparation Example 3 (α,δ-NA-L-G) was orally administered to the asthma-induced mice of Experimental Method 1 at a concentration of 200 or 400 μg/kg/day 30 minutes before a secondary challenge, and the lung tissue was stained using the method described above in Experimental Method 6 48 hours after the secondary challenge, and the inflammation score was measured. The results are shown in A and B of FIG. 6.
# asthma-induced mice [2] = test: Bronchial hypersensitivity reaction (Rrs value, methacholine), asthma-induced mice; conditions: oral 200 or 400 μg/kg/day 30 minutes before secondary challenge, 48 hours after, methacholine 5.0 to 50 mg/mL, FIG. 5
# Protocol: as §1, §2
# 45 mg/kg of sodium pentobarbital was intraperitoneally injected into the mice prepared in Experimental Method 1 to anesthetize the mice, and the airways were cut and an 18 gauge needle was inserted into the airways. Thereafter, the needle was connected to a small-sized animal respirator connected to a computer, and the computer system was adjusted to a respiration rate of 150 breaths per minute. Then, methacholine in the form of aerosol was fed at an increasing concentration of 5.0 to 50 mg/mL so that the mice inhaled the methacholine. Then, an airway response was measured, and indicated as an Rrs value.
# Preparation Example 3 (α,δ-NA-L-G) or α,δ N-acetyl-D-glutamine was orally administered to the asthma-induced mice of Experimental Method 1 at a concentration of 200 or 400 μg/kg/day 30 minutes before a secondary airway challenge, and the bronchial hypersensitivity reaction was measured 48 hours after the secondary challenge using the method described in Experimental Method 5. The results are shown in A and B of FIG. 5.
# CK2α protein = test: Western blot of CK2α protein in lung of asthma-induced mice
# Protocol: as §2
# A tissue was extracted from each of the mice manufactured in Experimental Method 1, and finely ground to a cell level. Thereafter, the cells were lysed in a cell lysis buffer containing a protease inhibitor to obtain a cell lysate. The cell lysate was centrifuged to obtain protein. Then, an equivalent amount of the proteins obtained from the cells were loaded on an SDS-PAGE gel and electrophoresed. The proteins present in the electrophoresed gel were transferred to a PVDF membrane. The PVDF membrane was washed, and added to a blocking buffer in which 5% skim milk was included in a TBS-T buffer, and incubated at room temperature. Then, the PVDF membrane was incubated at room temperature with an antibody diluted 1:1,000 in a TBS-T buffer containing 3% BSA. […] The PVDF membrane was washed three times with a TBS-T buffer, and visualized and quantified using an ECL Western blotting detection reagent. […]
# Specifically, the secondary challenge (ovalbumin injection) was performed according to the method described above in Experimental Method 1, and the lungs were extracted after an hour, and then measured according to the method described above in Experimental Method 7. […] Also, the level of TNF-α corresponding to an NK-κB-dependent cytokine was measured by ELISA according to the method described above in Experimental Method 4. […]
# The secondary challenge (ovalbumin injection) was performed according to the method described above in Experimental Method 1, and the lungs were extracted after 1 or 2 hours, and then measured according to the method described above in Experimental Method 7. […]
# [3] = system: neutrophils and eosinophils introduced into the airway; test: Inflammatory cells (neutrophils and eosinophils) in bronchoalveolar lavage fluid, Diff-Quik staining, asthma-induced mice
# Protocol: as §1, §2
# After the mice were anesthetized, a thin tube was inserted into the airway, and a piston process was repeated using a syringe filled with 0.2 mL of physiological saline to obtain a bronchoalveolar lavage fluid. The bronchoalveolar lavage fluid obtained through this piston process was stored at −70° C. when it was not immediately used in the experiments.
# 50 μL of the bronchoalveolar lavage fluid obtained in Experimental Method 2 was put on a slide used for the cytospin, and centrifuged for 30 minutes. Thereafter, Diff-Quik staining was performed, and inflammatory cells (neutrophils and eosinophils) were observed using a microscope.
# Preparation Example 3 (α,δ-NA-L-G) or α,δ N-acetyl-D-glutamine (α,δ-NA-D-G) was orally administered to the asthma-induced mice of Experimental Method 1 daily from the experimental starting date at a concentration of 50, 100, or 200 μg/kg/day, and the cell numbers of neutrophils and eosinophils introduced into the airway through the method of Experimental Method 3 were measured. The results are shown in A and B of FIG. 3. In this case, the cell numbers were measured at 10 hours (neutrophils) or 48 hours (eosinophils) after a secondary challenge.
smiles,measurement,setting,value
"CC(=O)NC(=O)CC[C@H](NC(C)=O)C(=O)O [Preparation Example 3, 2,5-diacetamido-5-oxopentanoic acid]","inflammation score (lung tissue, grades 0 to 3)",asthma-induced mice [1]; oral 200 μg/kg/day,2
same,"inflammation score (lung tissue, grades 0 to 3)",asthma-induced mice [1]; oral 400 μg/kg/day,1
same,inflammation-relieving effect (lung tissue),"asthma-induced mice [1]; experiment [5-6], together with siRNA specific to MKP-1, FIG. 15",disappeared
same,degree of inflammation in the lung tissue,"asthma-induced mice [1]; experiment [5-6], without MKP-1 siRNA, FIG. 15",inhibited
same,Rrs value (bronchial hypersensitivity reaction),asthma-induced mice [2],remarkably inhibited
same,effect for reducing the level of CK2α,"CK2α protein; 400 μg/kg/day with siRNA specific to MKP-1, FIG. 9",not observed
same,level of the CK2α protein,"CK2α protein; oral daily 400 μg/kg/day, lungs extracted an hour after secondary challenge, FIG. 9A",decreased
same,inflow of the neutrophils and eosinophils into the airway,"[3]; asthma-induced mice, oral daily 50, 100 or 200 μg/kg/day, neutrophils 10 hours, eosinophils 48 hours after secondary challenge, FIG. 3",very effectively inhibited
same,"inhibition of neutrophils, compared to the eosinophils","[3]; asthma-induced mice, oral daily, from a concentration of 50 μg/kg/day, FIG. 3A",very effectively inhibited the neutrophils
same,cell numbers of the neutrophils and eosinophils,"[3]; experiment [5-6], together with siRNA specific to MKP-1, FIG. 12",increased
same,cell numbers of neutrophils and eosinophils,"[3]; experiment [5-6], without MKP-1 siRNA, FIG. 12",decreased
